Measured values as given in US11046686B2, “Thiadiazole IRAK4 compounds” (Gilead Sciences, Inc., priority 2018, dated 2021).
Like-named read-outs stand apart in the source and are kept apart here.

System: TNFα
Test: IRAK4 Monocyte TNFα Cell Based Assay
Parameters: species or system human
Procedure, shortened: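 TNFα release quantified by HTRF (cryptate/XL665 antibody pair, overnight at RT) after 1 h compound pre-incubation (0.1% DMSO) and 4 h LPS challenge at 50 pg/ml, 37 °C, 5,000 monocytes per well. Signal ratio normalised between unstimulated (0%) and stimulated (100%) controls.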

[1] = Homo sapiens, Monocyte, human monocytes, second part of Table 2, compounds 33-343, unit inferred, read-out: EC50 MONO TNF HTRF
[2] = human monocytes, second part of Table 2, compounds 33-343, unit inferred, read-out: EC50 MONO TNF HTRF

SMILES | EC50 [2] [nM] | other results
CC(C)Nc1cc(-c2ccc3cc(C#N)cnn23)ncc1-c1nnc(N2CCC(F)(F)CC2)s1 [Example 294, 7-(5-(5-(4,4-difluoropiperidin-1-yl)-1,3,4-thiadiazol-2-yl)-4-(isopropylamino)pyridin-2-yl)pyrrolo[1,2-b]pyridazine-3-carbonitrile] |  | EC50 [1]: 1000 nM
C[C@H](C#N)Nc1cc(-c2ccc3cc(C#N)cnn23)ncc1-c1nnc([C@H]2CC[C@H](NC(=O)C3CC3)CC2)s1 [Example 160, N-((1R,4r)-4-(5-(4-(((R)-1-cyanoethyl)amino)-6-(3-cyanopyrrolo[1,2-b]pyridazin-7-yl)pyridin-3-yl)-1,3,4-thiadiazol-2-yl)cyclohexyl)cyclopropanecarboxamide] | 2.8 | 
CC1(Nc2cc(-c3ccc4cc(C#N)cnn34)ncc2-c2nnc(N3C[C@H]4CC[C@@H](C3)[C@@H]4NC(=O)C(C)(C)O)s2)COC1 [Example 210, N-((1R,5S,8s)-3-(5-(6-(3-cyanopyrrolo[1,2-b]pyridazin-7-yl)-4-((3-methyloxetan-3-yl)amino)pyridin-3-yl)-1,3,4-thiadiazol-2-yl)-3-azabicyclo[3.2.1]octan-8-yl)-2-hydroxy-2-methylpropanamide] | 2.8 | 
CC1(Nc2cc(-c3ccc4cc(C#N)cnn34)ncc2-c2nnc(N3CC4CC(C3)N4C(=O)CN=S(C)(C)=O)s2)COC1 [Example 113, 7-(5-(5-(6-(2-((dimethyl(oxo)-16-sulfanylidene)amino)acetyl)-3,6-diazabicyclo[3.1.1]heptan-3-yl)-1,3,4-thiadiazol-2-yl)-4-((3-methyloxetan-3-yl)amino)pyridin-2-yl)pyrrolo[1,2-b]pyridazine-3-carbonitrile] | 47.4 | 
CN1CCN(C(=O)N2C3CC2CN(c2nnc(-c4cnc(-c5ccc6cc(C#N)cnn56)cc4NC4(C)COC4)s2)C3)CC1 [Example 114, 7-(4-((3-methyloxetan-3-yl)amino)-5-(5-(6-(4-methylpiperazine-1-carbonyl)-3,6-diazabicyclo[3.1.1]heptan-3-yl)-1,3,4-thiadiazol-2-yl)pyridin-2-yl)pyrrolo[1,2-b]pyridazine-3-carbonitrile] |  | EC50 (Homo sapiens, Monocyte, read-out: EC50 MONO TNF HTRF): 24.4 nM
CC(C)Nc1cc(-c2ccc3cc(C#N)cnn23)ncc1-c1nnc(N2CCCC2)s1 [Example 29, 7-(4-(isopropylamino)-5-(5-(pyrrolidin-1-yl)-1,3,4-thiadiazol-2-yl)pyridin-2-yl)pyrrolo[1,2-b]pyridazine-3-carbonitrile] |  | EC50 (Homo sapiens, Monocyte, human monocytes, LPS stimulated, compounds 1-32, read-out: EC50 TNF): 4180 nM
CC(=O)N[C@H]1C[C@H]2CC[C@@H](C1)N2c1nnc(-c2cnc(-c3ccc4cc(C#N)cnn34)cc2NC(C)C)s1 [Example 55, N-((1R,3r,5S)-8-(5-(6-(3-cyanopyrrolo[1,2-b]pyridazin-7-yl)-4-(isopropylamino)pyridin-3-yl)-1,3,4-thiadiazol-2-yl)-8-azabicyclo[3.2.1]octan-3-yl)acetamide] | 115 | 
CC(=O)N[C@@H]1[C@@H]2C[C@H]1CN(c1nnc(-c3cnc(-c4ccc5cc(C#N)cnn45)cc3NC3(C)COC3)s1)C2 [Example 175, N-((1R,5S,6s)-3-(5-(6-(3-cyanopyrrolo[1,2-b]pyridazin-7-yl)-4-((3-methyloxetan-3-yl)amino)pyridin-3-yl)-1,3,4-thiadiazol-2-yl)-3-azabicyclo[3.1.1]heptan-6-yl)acetamide] | 9 | 
CC(C)Nc1cc(-c2ccc3cc(C#N)cnn23)ncc1-c1nnc(N2CCN(C3COC3)CC2)s1 [Example 304] | 9.8 | 
CC(=O)NC12CCC(c3nnc(-c4cnc(-c5ccc6cc(C#N)cnn56)cc4NC4COC4)s3)(C1)C2 [Compound 334] | 98.9 | 
CC(=O)NC1CCC(F)(c2nnc(-c3cnc(-c4ccc5cc(C#N)cnn45)cc3NC3COC3)s2)CC1 (single isomer, unassigned) [Example 196, N-(4-(5-(6-(3-cyanopyrrolo[1,2-b]pyridazin-7-yl)-4-(oxetan-3-ylamino)pyridin-3-yl)-1,3,4-thiadiazol-2-yl)-4-fluorocyclohexy)acetamide] | 107 | 
CNC(=O)N[C@H]1CC[C@H](c2nnc(-c3cnc(-c4ccc5cc(C#N)cnn45)cc3NC(C)C)s2)CC1 [Example 140, 1-((1r,4r)-4-(5-(6-(3-cyanopyrrolo[1,2-b]pyridazin-7-yl)-4-(isopropylamino)pyridin-3-yl)-1,3,4-thiadiazol-2-yl)cyclohexyl)-3-methylurea] | 6.4 | 
CC(=O)N1CC2CCC(C1)N2c1nnc(-c2cnc(-c3ccc4cc(C#N)cnn34)cc2NC(C)C)s1 [Compound 260, 7-(5-(5-(3-acety1-3,8-diazabicyclo[3.2.1]octan-8-yl)-1,3,4-thiadiazol-2-yl)-4-(isopropylamino)pyridin-2-yl)pyrrolo[1,2-b]pyridazine-3-carbonitrile] | 15.8 | 
CC(=O)NC1CCC(c2nnc(-c3cnc(-c4ccc5cc(C#N)cnn45)cc3NC3CCC(c4cnn(C(F)F)c4)CC3)s2)CC1 [Example 227, N-((1R,4r)-4-(5-(6-(3-cyanopyrrolo[1,2-b]pyridazin-7-yl)-4-(((1r,4R)-4-(1-(difluoromethyl)-1H-pyrazol-4-yl)cyclohexyl)amino)pyridin-3-yl)-1,3,4-thiadiazol-2-yl)cyclohexyl)acetamide] | 14.4 | 
CC(=O)N[C@@H]1[C@@H]2CC[C@H]1CN(c1nnc(-c3cnc(-c4ccc5cc(C#N)cnn45)cc3NC3COC3)s1)C2 [Example 184] | 2.4 | 
CS(C)(=O)=NCC(=O)NC12CCC(c3nnc(-c4cnc(-c5ccc6cc(C#N)cnn56)cc4NC4CCOCC4)s3)(CC1)CC2 [Compound 338] | 2.7 | 
CC(C)Nc1cc(-c2ccc3cc(C#N)cnn23)ncc1-c1nnc(C2CCOCC2)s1 [Example 32] |  | EC50 (human monocytes, LPS stimulated, compounds 1-32, read-out: EC50 TNF): 211 nM
CC(C)Nc1cc(-c2ccc3cc(C#N)cnn23)ncc1-c1nnc(N2C3CC2CN(C(=O)CN=S(C)(C)=O)C3)s1 [Compound 276, 7-(5-(5-(3-(2-((dimethyl(oxo)-16-sulfanylidene)amino)acetyl)-3,6-diazabicyclo[3.1.1]heptan-6-yl)-1,3,4-thiadiazol-2-yl)-4-(isopropylamino)pyridin-2-yl)pyrrolo[1,2-b]pyridazine-3-carbonitrile] | 7.8 | 
CC(C)Nc1cc(-c2ccc3cc(C#N)cnn23)ncc1-c1nnc(C(=O)N[C@H]2CC[C@@H](O)CC2)s1 [Example 224, 5-(6-(3-cyanopyrrolo[1,2-b]pyridazin-7-yl)-4-(isopropylamino)pyridin-3-yl)-N-((1s,4s)-4-hydroxycyclohexyl)-1,3,4-thiadiazole-2-carboxamide] | 4770 | 
C[C@H](C#N)Nc1cc(-c2ccc3cc(C#N)cnn23)ncc1-c1nnc(N2C[C@H]3CC[C@@H](C2)[C@@H]3NC(=O)C2CC2)s1 [Example 148, N-((1R,5S,8S)-3-(5-(4-(((R)-1-cyanoethyl)amino)-6-(3-cyanopyrrolo[1,2-b]pyridazin-7-yl)pyridin-3-yl)-1,3,4-thiadiazol-2-yl)-3-azabicyclo[3.2.1]octan-8-yl)cyclopropanecarboxamide] |  | EC50 [1]: 1.4 nM

Continued, in another order:

EC50 [2] [nM] | SMILES | other results
6.8 | CC(C)Nc1cc(-c2ccc3cc(C#N)cnn23)ncc1-c1nnc(N2C[C@H]3CC[C@@H](C2)[C@@H]3NC(=O)N2CCOCC2)s1 [Example 57, N-((1R,5S,8s)-3-(5-(6-(3-cyanopyrrolo[1,2-b]pyridazin-7-yl)-4-(isopropylamino)pyridin-3-yl)-1,3,4-thiadiazol-2-yl)-3-azabicyclo[3.2.1]octan-8-yl)morpholine-4-carboxamide] | 
13.3 | CC(C)Nc1cc(-c2ccc3cc(C#N)cnn23)ncc1-c1nnc(N2C[C@H]3CC[C@@H](C2)[C@@H]3O)s1 [Example 154, 7-(5-(5-((1R,5S,8s)-8-hydroxy-3-azabicyclo[3.2.1]octan-3-yl)-1,3,4-thiadiazol-2-yl)-4-(isopropylamino)pyridin-2-yl)pyrrolo[1,2-b]pyridazine-3-carbonitrile] | 
18.3 | CC(=O)N1CC2CC(C1)N2c1nnc(-c2cnc(-c3ccc4cc(C#N)cnn34)cc2NC(C)C)s1 [Compound 261, 7-(5-(5-(3-acety1-3,6-diazabicyclo[3.1.1]heptan-6-yl)-1,3,4-thiadiazol-2-yl)-4-(isopropylamino)pyridin-2-yl)pyrrolo[1,2-b]pyridazine-3-carbonitrile] | 
4.1 | CC(C)Nc1cc(-c2ccc3cc(C#N)cnn23)ncc1-c1nnc(N2C[C@H]3CC[C@@H](C2)[C@@H]3NC(=O)C2(C)CCOCC2)s1 [Example 95, N-((1R,5S,8s)-3-(5-(6-(3-cyanopyrrolo[1,2-b]pyridazin-7-yl)-4-(isopropylamino)pyridin-3-yl)-1,3,4-thiadiazol-2-yl)-3-azabicyclo[3.2.1]octan-8-yl)-4-methyltetrahydro-2H-pyran-4-carboxamide] | 
4.9 | CC(C)Nc1cc(-c2ccc3cc(C#N)cnn23)ncc1-c1nnc(N2C[C@H]3CC[C@@H](C2)[C@@H]3N2CCOC2=O)s1 [Example 301, 7-(4-(isopropylamino)-5-(5-((1R,5S,8s)-8-(2-oxooxazolidin-3-yl)-3-azabicyclo[3.2.1]octan-3-yl)-1,3,4-thiadiazol-2-yl)pyridin-2-yl)pyrrolo[1,2-b]pyridazine-3-carbonitrile] | 
11.8 | CC(=O)N[C@H]1[C@@H]2C[C@H]1CN(c1nnc(-c3cnc(-c4ccc5cc(C#N)cnn45)cc3NC(C)C)s1)C2 [Example 45] | 
3.2 | CC(C)Nc1cc(-c2ccc3cc(C#N)cnn23)ncc1-c1nnc(N2C[C@H]3CC[C@@H](C2)[C@@H]3NC(=O)CN=S(C)(C)=O)s1 [Example 98, N-((1R,5S,8s)-3-(5-(6-(3-cyanopyrrolo[1,2-b]pyridazin-7-yl)-4-(isopropylamino)pyridin-3-yl)-1,3,4-thiadiazol-2-yl)-3-azabicyclo[3.2.1]octan-8-yl)-2-((dimethyl(oxo)-16-sulfanylidene)amino)acetamide] | 
10.4 | CC(=O)N[C@H]1[C@@H]2CC[C@H]1CN(c1nnc(-c3cnc(-c4ccc5cc(C#N)cnn45)cc3NC(C)C)s1)C2 [Example 39] | 
